Values of other authors, collected in paper PMC7914841, “Systemic Delivery of hGhrelin Derivative by Lyophilizate for Dry Powder Inhalation System in Monkeys” (Pharmaceutics, 2021).
Where no end group is shown, it is not given here. The star is where a group is joined. Octanoyl = CCCCCCCC(=O)*

Tested on: growth hormone (GH) release
Conditions: healthy humans, intravenously injected

Question: For “ghrelin: peptide hormone of 28 amino acids, O-n-octanoylated at the 3rd serine residue (GSS(Octanoyl)FLSPEHQRVQQRKESKKPPAKLQPR; UniProt Q9UBU3 24-51, looked up)”, which “ratio of AUC of GH, 5 µg/kg vs 1 µg/kg” value is on record?
Answer: The value was 1.3–1.6 times.
